Data as given in publication PMC4786809, “Determination of cyanidin 3-glucoside in rat brain, liver and kidneys by UPLC/MS-MS and its application to a short-term pharmacokinetic study” (Scientific Reports, 2016).
“And” between values parts separate entries of the source, which are not always exact repeats. Identical values can stand only once. Like-named read-outs stand apart in the source and are kept apart here.

What was measured:
[1] = Plasma concentrations and pharmacokinetics after intravenous bolus of C3G (NCA and two-compartment model); format: in vivo, Wistar rats; conditions: for C0: read-out: C0 (back-extrapolated concentration)
Excerpt: (§1) Twenty-two male Wistar rats (Rattus Norvegicus, Harlan Italy S.r.l.), of same age (15 weeks), 293–390 g of body weight, were used. The rats were randomly divided into 5 groups, according to the time that elapsed after intravenous administration of the test compound, and one control group. Each time point was represented by four biological replicates. All animals were allowed to acclimate to the animal facility of the University of Trieste for at least 2 week before studies were initiated. The experimental design was vetted and approved by the bioethical committee of the University of Trieste (internal code 140PAS14), according to the provisions of the European Community Council Directive 2010/63/EU[39]. The methods were carried out in accordance with the approved guidelines. The animals (n = 22) were maintained in cages in a room at 23 ± 2 °C, 50–60% humidity with a 12-hour light-dark cycle. The night before the experiment, food was withdrawn from the cages but water was given ad libitum. On the day of the experiment, the rats were anesthetized with intra-peritoneal administration of tiletamine/zolazepam (1:1, 25 mg/kg body weight) and xylazine (10 mg/kg body weight). During anaesthesia (10 min in all cases), the heart and ventilation rate were monitored. The rats were placed on their backs, with the ventral side up and with the legs spread separately on a thermo-isolated support. The penis was extruded by sliding the prepuce downwards. The dorsal penis vein was then seen along both sides of the penis and exactly 10 min after anaesthesia 0.2 mL PBS without (control group) or with (treated group) 668 nmol cyanidin 3-glucoside (C3G) in PBS was injected using a 24-G hypodermic needle. Then the injection site was pressed with a swab for a few seconds, and the glans was encouraged to retract to prevent further bleeding. One min before sacrificing the rats, sodium heparin (0.1 ml, 500 IU) was injected again into the dorsal penis vein, exposed in the same way. […] Blood draining and excision of the organs were carried out according to the literature. In detail, blood was collected from the neck of rats hold upside down, immediately after their decapitation, which happened at the time points sharp. Exsanguination took 5 seconds; laparotomy and excision of the liver and the kidneys took 5 more seconds. The post-decapitation procedures were standardised. Urine was collected through the urinary bladder with a syringe before decapitation. Kidneys, liver and brain were washed with mQ water, immediately frozen in liquid nitrogen and stored at −80 °C.
(§2) Immediately after sampling, 5 mL of blood were transferred into ice-cold (−20 °C), deoxygenated aqueous 95% methanol in a ratio 1:9 (v/v). The urine was weighted and transferred into ice-cold, deoxygenated aqueous 95% methanol at a ratio of 1:9 (w/v). Frozen kidneys, liver and brain were grounded under cryogenic conditions (−196 °C) to 5 μm particles in a CryoMill (Retsch, Germany), using a single 25 mm i. d. steel ball (30 seconds, 25/sec frequency). The pulverized tissue was rapidly transferred (without thawing) into ice-cold, deoxygenated aqueous 95% methanol at a ratio of 1:9 (w/v). Cinnamic acid-d5, as internal standard, was dissolved in the aqueous methanol at concentration of 0.1 mg/L for the monitoring of the extraction protocol in biofluids and tissues.
(§3) All samples were extracted with an orbital shaker for 10 min at room temperature. The methanol extracts were then centrifuged for 5 min at 3600 rpm at 4 °C, decanted under a stream of nitrogen in 50 mL dark glass vessels and stored at −80 °C. Clean-up of extracted samples in methanol was performed by solid phase extraction (SPE), as previously described. Briefly, 5 mL of extracted samples were evaporated on a rotary evaporator and reconstituted in 10 mL of acidified water. Anthocyanins were extracted by solid-phase adsorption onto a hydrophobic matrix (Sep-Pak C18, 0.35 g, Waters, Milford, MA). […]

[2] = Urinary excretion after intravenous C3G; format: in vivo, Wistar rats
Excerpt: as §1, §2, §3

[3] = test system: endothelial cell membrane; set-up: method as in PMID 22387282; conditions: cited from earlier work
[4] = Liver concentrations and tissue pharmacokinetics after intravenous C3G; format: in vivo, Wistar rats
Excerpt: as §1, §2, §3

[5] = Kidney concentrations and tissue pharmacokinetics after intravenous C3G; format: in vivo, Wistar rats
Excerpt: as §1, §2, §3

[6] = male, Wistar, rat, plasma, iv, 668 nmol, non-compartmental analysis
[7] = male, Wistar, rat, plasma, iv, 668 nmol, two-compartment model analysis
[8] = 0.25 min after i.v. 668 nmol C3G, mean ± SEM n=4

OC[C@H]1O[C@@H](Oc2cc3c(O)cc(O)cc3[o+]c2-c2ccc(O)c(O)c2)[C@H](O)[C@@H](O)[C@@H]1O [C3G, Cyanidin-3-O-β-glucoside]
Plasma concentration range with linear plasma/brain correlation ([1]; 0.25–20 min): 19 to 355 nM and 18.78 to 354.84 nM
Time after which half of the compound had been cleared from the plasma ([1]; distribution phase): 18 s
Time window needed to describe complete elimination ([1]; estimate): no more than 1 hour
k el ([1]; male, Wistar, rat, iv, non-compartmental analysis, plasma, i.v. 668 nmol, read-out: λz (first order terminal elimination rate constant) (converted)): 0.00167 s⁻¹
AUC0-t ([1]; male, Wistar, rat, iv, plasma, i.v. 668 nmol C3G, read-out: AUC0–20 (converted)): 0.0194 µM·h
time to complete elimination ([1]; male, Wistar, rat, plasma, intravenous, 668 nmol, estimate, read-out: Time for complete elimination (5–6 half-lives)): 40 to 50 min
C0 ([1]; male, Wistar, rat, plasma, intravenous, 668 nmol, non-compartmental analysis): 429 nM
half-life ([1]; male, Wistar, rat, plasma, intravenous, 668 nmol, plasma, read-out: Mean half-life): < 8 min
C0 ([1]; male, Wistar, rat, plasma, intravenous, 668 nmol, two-compartment model analysis): 550 nM
MRT ([1]; male, Wistar, rat, plasma, intravenous, 668 nmol, two-compartment model analysis, read-out: MRT (converted)): 9.21 min
MRT ([1]; male, Wistar, rat, plasma, intravenous, 668 nmol, two-compartment model analysis, read-out: MRTP (mean residence time in the peripheral space) (converted)): 6.68 min
AUC(0-inf) [1, 6]: 0.0225 µM·h
Cmax [1, 6]: 355 nM
Tmax [1, 6]: 0.25 min
C0 [1, 6]: 429 nM
clearance ([1]; male, Wistar, rat, plasma, iv, 668 nmol, non-compartmental analysis, read-out: CL (total body clearance)): 490 mL/min
MRT ([1]; male, Wistar, rat, plasma, iv, 668 nmol, non-compartmental analysis, read-out: MRT (converted)): 8.72 min
Vd ([1]; male, Wistar, rat, plasma, iv, 668 nmol, non-compartmental analysis, read-out: Vss): 4.31 L
Vd ([1]; male, Wistar, rat, plasma, iv, 668 nmol, non-compartmental analysis, read-out: Vz): 4.92 L
half-life ([1]; male, Wistar, rat, plasma, iv, 668 nmol, non-compartmental analysis, read-out: t1/2 (terminal elimination half-life)): 6.9 min
half-life ([1]; male, Wistar, rat, plasma, iv, 668 nmol, plasma, i.v. 668 nmol C3G, read-out: Half life): 6.9 min
AUC(0-inf) [1, 7]: 0.0222 µM·h
C0 [1, 7]: 550 nM
MRT ([1]; male, Wistar, rat, plasma, iv, 668 nmol, two-compartment model analysis, read-out: MRT (converted)): 9.22 min
Vd ([1]; male, Wistar, rat, plasma, iv, 668 nmol, two-compartment model analysis, read-out: Vss): 4.58 L
half-life ([1]; male, Wistar, rat, plasma, iv, 668 nmol, two-compartment model analysis, read-out: t1/2e (elimination half-life)): 7.41 min
half-life ([1]; male, Wistar, rat, plasma, iv, 668 nmol, two-compartment model analysis, read-out: t1/2d (distribution half-life)): 0.3 min
concentration at 0.25 min ([1]; male, Wistar, rat, plasma, iv, 0.25 min after i.v. 668 nmol C3G, mean ± SEM n=4): 355 ± 54.2 nM
concentration at 2 min ([1]; male, Wistar, rat, plasma, iv, 2 min after i.v. 668 nmol C3G, mean ± SEM n=4): 93.8 ± 9.01 nM
concentration at 5 min ([1]; male, Wistar, rat, plasma, iv, 5 min after i.v. 668 nmol C3G, mean ± SEM n=4): 72.2 ± 5.47 nM
concentration at 15 min ([1]; male, Wistar, rat, plasma, iv, 15 min after i.v. 668 nmol C3G, mean ± SEM n=4): 17.5 ± 2.04 nM
concentration at 20 min ([1]; male, Wistar, rat, plasma, iv, 20 min after i.v. 668 nmol C3G, mean ± SEM n=4): 18.8 ± 4.06 nM
AUMC ([1]; non-compartmental analysis): 11789.96 nM*min^2
Residual amount eliminated per min ([1]; per min): ca. 10%
Time for distribution to go to 50% completion ([1]; rat, in vivo): ca. 8 s
Fraction distributed beyond plasma at distribution equilibrium ([1]; steady state): 99.76%
Fraction present in plasma at distribution equilibrium ([1]; steady state): 0.24%
Share of MRT spent in the peripheral space ([1]; two-compartment model): 73.51%
AUMC ([1]; two-compartment model analysis): 12394.67 nM*min^2
CL (total body clearance) ([1]; two-compartment model analysis): 0.49 L/min
FAUC (AUC peripheral bioavailability, MRTP/MRTC) ([1]; two-compartment model analysis): 2.77
IC (number of circulations, MRTP/MTTP) ([1]; two-compartment model analysis): 3.55
MTT (mean transit time; MTTC, mean duration of one visit in central compartment) ([1]; two-compartment model analysis): 0.54 min
MTTp (mean transit time in the peripheral space) ([1]; two-compartment model analysis): 1.91 min
V1 (volume of central compartment) ([1]; two-compartment model analysis): 1.21 L
V2 (volume of peripheral compartment) ([1]; two-compartment model analysis): 3.36 L
a (T0 intercept of distribution kinetics) ([1]; two-compartment model analysis): 442.79 nM
b (T0 intercept of elimination phase) ([1]; two-compartment model analysis): 107.68 nM
k10 ([1]; two-compartment model analysis): 0.41 min^–1
k12 ([1]; two-compartment model analysis): 1.45 min^–1
k21 ([1]; two-compartment model analysis): 0.52 min^–1
α (slope factor) ([1]; two-compartment model analysis): 2.29 min^–1
β (slope factor) ([1]; two-compartment model analysis): 0.09 min^–1
Urine concentration ([2]; 0.25 min after i.v. 668 nmol C3G): 0.02 ± 0.01 nmol/g
Urine concentration ([2]; 2 min after i.v. 668 nmol C3G): 2.69 ± 0.82 nmol/g
Urine concentration ([2]; 5 min after i.v. 668 nmol C3G): 20.20 ± 2.61 nmol/g
Injected dose recovered in urine ([2]; 5 min after the injection): 15%
Urine concentration ([2]; 15 min after i.v. 668 nmol C3G): 11.95 ± 6.53 nmol/g
Urine concentration ([2]; 20 min after i.v. 668 nmol C3G): 5.66 ± 1.31 nmol/g
Time frame to pass the endothelial cell membrane [3]: < 1 min
Mean concentration in liver [4, 8]: 56.61 ± 11.79 pmol/g
Mean concentration in liver ([4]; 2 min after i.v. 668 nmol C3G): 19.22 ± 1.99 pmol/g
Mean concentration in liver ([4]; 5 min after i.v. 668 nmol C3G): 20.91 ± 2.61 pmol/g
Mean concentration in liver ([4]; 15 min after i.v. 668 nmol C3G): 11.02 ± 2.24 pmol/g
Mean concentration in liver ([4]; 20 min after i.v. 668 nmol C3G): 5.54 ± 0.33 pmol/g
MTTL (Mean Transit Time in the liver) ([4]; liver): 1.43 min
AUC0-t ([4]; liver, i.v. 668 nmol C3G): 345.3 pmol·min/g and 345.29 pmol·min/g
half-life ([4]; male, Wistar, rat, liver, iv, 668 nmol, read-out: Half-life): 8.15 min
Amounts found in kidneys (range over sampling times) ([5]; 0.25–20 min after i.v. 668 nmol C3G): 0.44 to 1.69 nmol/g
Mean concentration in kidneys [5, 8]: 1.69 ± 0.47 nmol/g
Mean concentration in kidneys ([5]; 2 min after i.v. 668 nmol C3G): 1.40 ± 0.16 nmol/g
Mean concentration in kidneys ([5]; 5 min after i.v. 668 nmol C3G): 0.58 ± 0.08 nmol/g
Mean concentration in kidneys ([5]; 15 min after i.v. 668 nmol C3G): 0.57 ± 0.17 nmol/g
Mean concentration in kidneys ([5]; 20 min after i.v. 668 nmol C3G): 0.44 ± 0.04 nmol/g
MTTK (Mean Transit time in kidneys) ([5]; kidneys): 8.54 min
AUC0-t ([5]; kidneys, i.v. 668 nmol C3G): 14.3 nmol·min/g and 14.32 nmol·min/g
half-life ([5]; male, Wistar, rat, kidney, iv, 668 nmol, kidneys): 11.7 min
